Numbers after ± are expanded uncertainties.
Test: molar heat capacity at constant pressure
Conditions: 101.33 kPa, Crystal, Vacuum adiabatic calorimetry

CC(C)(C)c1ccc(-c2ccccc2)cc1 [4-(1,1-dimethylethyl)-1,1'-biphenyl]
Conditions | molar heat capacity at constant pressure [J/K/mol]
68.76 K | 79.62 ± 1.6
69.49 K | 80.06 ± 1.6
70.22 K | 80.55 ± 1.6
71.11 K | 81.26 ± 1.6
72.16 K | 81.97 ± 1.7
73.2 K | 83.77 ± 1.7
74.24 K | 85.78 ± 1.8
75.29 K | 87.62 ± 1.8
76.33 K | 89.61 ± 1.8
77.37 K | 91.7 ± 1.9
78.41 K | 93.86 ± 1.9
78.6 K | 93.38 ± 1.9
79.46 K | 95.29 ± 1.9
79.89 K | 95.59 ± 1.9
80.5 K | 96.68 ± 0.64
80.92 K | 97.16 ± 0.69
81.55 K | 97.38 ± 0.65
81.96 K | 98.92 ± 0.67
82.59 K | 99.16 ± 0.7
82.99 K | 99.71 ± 0.67
83.63 K | 100.81 ± 0.71
84.02 K | 101.38 ± 0.73
84.67 K | 102.6 ± 0.74
85.05 K | 103.37 ± 0.74
85.71 K | 104.76 ± 0.78
86.08 K | 105.1 ± 0.78
87.11 K | 107.71 ± 0.77
88.14 K | 109.06 ± 0.69
89.18 K | 109.08 ± 0.69
90.21 K | 110.43 ± 0.75
91.24 K | 111.94 ± 0.74
92.26 K | 112.49 ± 0.73
93.29 K | 113.67 ± 0.76
94.32 K | 115.2 ± 0.77
95.34 K | 116.2 ± 0.76
96.36 K | 117.24 ± 0.75
97.39 K | 117.75 ± 0.78
98.41 K | 119.69 ± 0.83
99.44 K | 121.4 ± 0.76
100.46 K | 120.13 ± 0.76
101.48 K | 122.02 ± 0.83
102.5 K | 123.38 ± 0.79
103.53 K | 123.38 ± 0.79
104.55 K | 124.78 ± 0.82
105.57 K | 125.7 ± 0.8
106.59 K | 125.94 ± 0.79
107.6 K | 126.55 ± 0.81
108.62 K | 127.46 ± 0.84
109.63 K | 129.07 ± 0.86
110.65 K | 130.3 ± 0.82
111.66 K | 130.29 ± 0.82
112.67 K | 130.99 ± 0.83
113.68 K | 131.82 ± 0.85
114.69 K | 132.86 ± 0.85
115.71 K | 133.48 ± 0.84
116.72 K | 133.98 ± 0.84
117.73 K | 134.55 ± 0.85
118.74 K | 135.11 ± 0.86
119.75 K | 136.16 ± 0.87
120.76 K | 136.83 ± 0.86
121.76 K | 137.18 ± 0.86
122.77 K | 138 ± 0.88
123.77 K | 138.81 ± 0.89
124.78 K | 139.92 ± 0.89
125.78 K | 140.34 ± 0.88
126.79 K | 141.2 ± 0.9
127.78 K | 141.96 ± 0.9
128.78 K | 142.63 ± 0.9
129.78 K | 143.1 ± 0.92
130.78 K | 144.73 ± 0.93
131.78 K | 145.34 ± 0.91
132.78 K | 145.71 ± 0.91
133.78 K | 146.29 ± 0.92
134.78 K | 147.05 ± 0.92
135.77 K | 147.52 ± 0.93
136.77 K | 148.34 ± 0.94
137.77 K | 149.37 ± 0.94
138.76 K | 149.38 ± 0.94
139.75 K | 150.91 ± 0.98
140.74 K | 152.15 ± 0.97
141.74 K | 153 ± 0.96
142.73 K | 153.45 ± 0.96
143.7 K | 153.84 ± 0.97
144.69 K | 154.76 ± 0.97
145.68 K | 154.88 ± 0.97
146.67 K | 155.86 ± 1
147.65 K | 157.44 ± 1
148.64 K | 158.13 ± 1
149.63 K | 159.37 ± 0.99
150.61 K | 159.11 ± 1
151.59 K | 161.68 ± 1
152.58 K | 161.75 ± 1
153.56 K | 162.27 ± 1
154.54 K | 162.57 ± 1
155.52 K | 163.19 ± 1
